Experimental data: patent US9492471B2, “Methods of treating a disease or disorder associated with Bruton'S Tyrosine Kinase” (Celgene Avilomics Research, Inc., priority 2013, dated 2016)
Like-named read-outs stand apart in the source and are kept apart here.

Experiments:
Assay in all cases: HotSpot kinase profiling
Type in all cases: biochemical
[1] = target: T1, ERBB2/HER2 (Homo sapiens, UniProt P04626)
T1 construct: purchased Reaction Biology Corp
Method in brief: (§1)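 Percent inhibition, averaged when run more than once and referenced to a DMSO negative control, came from a radioactive filter-binding readout on P81 paper. Reactions of kinase with freshly made substrate and cofactors ran for 2 h at room temperature.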

[2] = target: T2, RET (Homo sapiens, UniProt P07949)
T2 construct: purchased Reaction Biology Corp
T2 sequence (P07949 29-1114): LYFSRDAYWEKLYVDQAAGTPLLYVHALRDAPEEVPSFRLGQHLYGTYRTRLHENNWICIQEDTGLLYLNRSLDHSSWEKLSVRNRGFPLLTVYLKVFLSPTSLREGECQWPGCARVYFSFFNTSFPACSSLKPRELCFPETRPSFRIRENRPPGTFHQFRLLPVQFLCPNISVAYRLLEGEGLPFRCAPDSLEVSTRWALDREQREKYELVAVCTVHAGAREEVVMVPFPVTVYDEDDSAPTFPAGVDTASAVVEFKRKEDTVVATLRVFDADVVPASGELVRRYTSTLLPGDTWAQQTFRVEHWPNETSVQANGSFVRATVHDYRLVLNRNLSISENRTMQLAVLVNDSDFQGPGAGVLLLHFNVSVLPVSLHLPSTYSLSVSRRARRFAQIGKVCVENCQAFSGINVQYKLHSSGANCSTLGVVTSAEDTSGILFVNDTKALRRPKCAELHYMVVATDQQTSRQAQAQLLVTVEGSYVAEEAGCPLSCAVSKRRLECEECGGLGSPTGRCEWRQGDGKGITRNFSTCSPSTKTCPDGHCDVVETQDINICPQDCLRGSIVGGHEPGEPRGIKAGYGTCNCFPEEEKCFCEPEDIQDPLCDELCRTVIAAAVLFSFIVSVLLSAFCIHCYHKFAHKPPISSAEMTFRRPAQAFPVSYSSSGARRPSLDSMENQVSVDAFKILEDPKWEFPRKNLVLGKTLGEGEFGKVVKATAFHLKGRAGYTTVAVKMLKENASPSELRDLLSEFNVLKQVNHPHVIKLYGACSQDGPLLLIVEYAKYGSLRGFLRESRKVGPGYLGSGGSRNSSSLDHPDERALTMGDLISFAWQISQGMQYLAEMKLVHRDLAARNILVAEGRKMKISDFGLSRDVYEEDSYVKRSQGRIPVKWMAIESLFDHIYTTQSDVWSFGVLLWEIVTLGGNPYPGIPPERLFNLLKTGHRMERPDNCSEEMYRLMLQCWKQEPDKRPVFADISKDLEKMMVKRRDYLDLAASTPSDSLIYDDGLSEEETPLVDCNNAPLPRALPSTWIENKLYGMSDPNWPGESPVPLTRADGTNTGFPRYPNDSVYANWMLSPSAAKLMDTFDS
Method in brief: as §1

[3] = target: T3, ERK2/MAPK1 (Homo sapiens, UniProt P28482)
T3 construct: purchased Reaction Biology Corp
T3 sequence (P28482 whole entry): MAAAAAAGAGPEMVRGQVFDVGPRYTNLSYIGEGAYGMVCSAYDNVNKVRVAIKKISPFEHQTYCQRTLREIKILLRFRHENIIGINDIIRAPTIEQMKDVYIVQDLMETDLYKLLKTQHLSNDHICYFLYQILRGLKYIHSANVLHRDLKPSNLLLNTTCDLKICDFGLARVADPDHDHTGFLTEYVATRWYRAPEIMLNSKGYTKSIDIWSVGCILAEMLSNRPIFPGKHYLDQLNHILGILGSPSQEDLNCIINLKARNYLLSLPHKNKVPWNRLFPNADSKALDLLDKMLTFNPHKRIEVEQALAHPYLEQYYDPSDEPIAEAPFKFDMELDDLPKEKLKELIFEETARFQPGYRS
Method in brief: as §1

[4] = target: T4, STK16 (Homo sapiens, UniProt O75716)
T4 construct: purchased Reaction Biology Corp
T4 sequence (O75716 whole entry): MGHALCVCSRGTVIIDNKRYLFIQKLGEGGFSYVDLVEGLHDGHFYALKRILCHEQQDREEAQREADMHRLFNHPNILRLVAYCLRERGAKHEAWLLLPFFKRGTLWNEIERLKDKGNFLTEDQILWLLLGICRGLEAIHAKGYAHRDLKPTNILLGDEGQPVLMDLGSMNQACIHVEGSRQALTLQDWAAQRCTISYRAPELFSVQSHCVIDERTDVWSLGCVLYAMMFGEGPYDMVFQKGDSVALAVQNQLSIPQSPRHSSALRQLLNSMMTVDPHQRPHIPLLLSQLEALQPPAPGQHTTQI
Method in brief: as §1

[5] = target: T5, LCK (Homo sapiens, UniProt P06239)
T5 construct: purchased Reaction Biology Corp
T5 sequence (P06239 whole entry): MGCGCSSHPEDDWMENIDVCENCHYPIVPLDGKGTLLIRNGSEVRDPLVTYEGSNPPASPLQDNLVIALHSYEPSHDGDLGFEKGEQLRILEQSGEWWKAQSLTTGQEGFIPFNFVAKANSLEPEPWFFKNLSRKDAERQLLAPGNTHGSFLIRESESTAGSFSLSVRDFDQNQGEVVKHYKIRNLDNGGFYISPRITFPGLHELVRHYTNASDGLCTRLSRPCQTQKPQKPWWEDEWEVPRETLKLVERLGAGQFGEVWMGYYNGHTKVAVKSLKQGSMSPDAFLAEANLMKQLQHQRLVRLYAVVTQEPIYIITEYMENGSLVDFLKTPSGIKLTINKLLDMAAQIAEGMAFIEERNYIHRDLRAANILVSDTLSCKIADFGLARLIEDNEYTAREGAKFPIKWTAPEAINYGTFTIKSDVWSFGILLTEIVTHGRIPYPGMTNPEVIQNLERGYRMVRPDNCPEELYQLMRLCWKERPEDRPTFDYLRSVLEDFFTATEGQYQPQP
Method in brief: as §1

[6] = target: T6, Aurora B (Homo sapiens, UniProt Q96GD4)
T6 construct: purchased Reaction Biology Corp
T6 sequence (Q96GD4 whole entry): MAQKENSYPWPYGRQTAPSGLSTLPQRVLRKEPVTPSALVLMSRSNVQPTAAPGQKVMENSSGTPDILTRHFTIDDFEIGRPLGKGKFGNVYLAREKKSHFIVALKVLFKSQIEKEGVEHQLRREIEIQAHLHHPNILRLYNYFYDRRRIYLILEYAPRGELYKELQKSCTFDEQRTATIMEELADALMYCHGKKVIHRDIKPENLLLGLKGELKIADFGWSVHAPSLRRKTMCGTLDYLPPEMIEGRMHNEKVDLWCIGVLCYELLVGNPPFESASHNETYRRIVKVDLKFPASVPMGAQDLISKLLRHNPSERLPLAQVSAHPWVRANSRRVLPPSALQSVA
Method in brief: as §1

[7] = target: T7, PDK1/PDPK1 (Homo sapiens, UniProt O15530)
T7 construct: purchased Reaction Biology Corp
T7 sequence (O15530 1-556): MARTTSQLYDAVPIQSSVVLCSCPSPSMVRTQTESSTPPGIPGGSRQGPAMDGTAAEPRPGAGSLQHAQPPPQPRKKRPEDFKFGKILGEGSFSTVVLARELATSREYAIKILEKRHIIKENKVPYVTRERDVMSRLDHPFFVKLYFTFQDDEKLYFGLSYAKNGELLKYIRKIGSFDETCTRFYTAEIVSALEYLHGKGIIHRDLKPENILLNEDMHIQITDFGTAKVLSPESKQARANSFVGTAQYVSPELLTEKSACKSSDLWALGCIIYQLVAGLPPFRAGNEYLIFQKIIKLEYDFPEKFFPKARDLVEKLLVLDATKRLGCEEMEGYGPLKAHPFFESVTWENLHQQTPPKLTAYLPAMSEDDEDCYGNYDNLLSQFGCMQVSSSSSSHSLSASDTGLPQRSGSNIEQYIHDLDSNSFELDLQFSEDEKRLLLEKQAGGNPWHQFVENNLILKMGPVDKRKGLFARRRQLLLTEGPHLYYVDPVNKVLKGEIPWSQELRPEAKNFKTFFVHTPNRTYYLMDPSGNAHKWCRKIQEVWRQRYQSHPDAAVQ
Method in brief: as §1

[8] = target: T8, AKT3 (Homo sapiens, UniProt Q9Y243)
T8 construct: purchased Reaction Biology Corp
T8 sequence (Q9Y243 whole entry): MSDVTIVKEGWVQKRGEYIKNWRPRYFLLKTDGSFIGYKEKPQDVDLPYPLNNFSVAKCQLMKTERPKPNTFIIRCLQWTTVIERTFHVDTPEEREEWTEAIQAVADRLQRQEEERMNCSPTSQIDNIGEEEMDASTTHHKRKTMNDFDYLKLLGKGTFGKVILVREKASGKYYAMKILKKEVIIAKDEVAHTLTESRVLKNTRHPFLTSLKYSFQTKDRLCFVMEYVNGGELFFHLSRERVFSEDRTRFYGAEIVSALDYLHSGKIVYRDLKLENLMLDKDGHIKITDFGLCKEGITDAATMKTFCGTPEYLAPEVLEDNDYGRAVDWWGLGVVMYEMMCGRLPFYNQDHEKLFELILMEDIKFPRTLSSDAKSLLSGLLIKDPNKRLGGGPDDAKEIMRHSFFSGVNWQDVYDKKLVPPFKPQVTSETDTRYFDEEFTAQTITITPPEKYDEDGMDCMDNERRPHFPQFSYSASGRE
Method in brief: as §1

[9] = target: T9, P38a/MAPK14 (Homo sapiens, UniProt Q16539)
T9 construct: purchased Reaction Biology Corp
T9 sequence (Q16539 whole entry): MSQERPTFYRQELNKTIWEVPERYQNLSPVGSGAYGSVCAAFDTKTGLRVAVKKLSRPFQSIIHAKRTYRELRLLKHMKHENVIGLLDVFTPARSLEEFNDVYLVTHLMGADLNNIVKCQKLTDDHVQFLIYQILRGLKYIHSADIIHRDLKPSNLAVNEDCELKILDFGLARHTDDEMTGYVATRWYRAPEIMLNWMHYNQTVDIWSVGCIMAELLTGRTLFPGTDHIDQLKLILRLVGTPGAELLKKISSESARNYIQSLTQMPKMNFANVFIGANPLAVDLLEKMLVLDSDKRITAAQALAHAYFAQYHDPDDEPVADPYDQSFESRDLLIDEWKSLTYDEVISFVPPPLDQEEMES
Method in brief: as §1

[10] = target: T10, DYRK1/DYRK1A (Homo sapiens, UniProt Q13627)
T10 construct: purchased Reaction Biology Corp

[11] = target: T11, IKKb/IKBKB (Homo sapiens, UniProt O14920)
T11 construct: purchased Reaction Biology Corp
T11 sequence (O14920 1-756): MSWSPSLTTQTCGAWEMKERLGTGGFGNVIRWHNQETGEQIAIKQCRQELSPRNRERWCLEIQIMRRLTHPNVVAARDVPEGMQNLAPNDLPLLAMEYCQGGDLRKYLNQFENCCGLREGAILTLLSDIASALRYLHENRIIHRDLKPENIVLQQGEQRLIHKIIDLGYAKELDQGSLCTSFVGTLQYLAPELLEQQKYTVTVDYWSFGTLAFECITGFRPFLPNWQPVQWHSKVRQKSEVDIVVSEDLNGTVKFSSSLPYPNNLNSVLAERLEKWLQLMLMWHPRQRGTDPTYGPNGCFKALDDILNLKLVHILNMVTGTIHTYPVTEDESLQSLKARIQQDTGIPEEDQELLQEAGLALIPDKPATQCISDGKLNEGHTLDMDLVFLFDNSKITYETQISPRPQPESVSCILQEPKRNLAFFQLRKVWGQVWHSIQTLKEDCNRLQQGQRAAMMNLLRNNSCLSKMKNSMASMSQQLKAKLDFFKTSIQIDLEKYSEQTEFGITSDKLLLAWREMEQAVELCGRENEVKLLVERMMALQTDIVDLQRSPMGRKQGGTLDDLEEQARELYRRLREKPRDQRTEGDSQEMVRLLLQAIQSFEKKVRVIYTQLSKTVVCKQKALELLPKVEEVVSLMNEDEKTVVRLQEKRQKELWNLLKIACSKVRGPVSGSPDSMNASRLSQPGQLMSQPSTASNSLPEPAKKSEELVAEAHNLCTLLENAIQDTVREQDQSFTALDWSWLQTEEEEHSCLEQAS
Method in brief: as §1

[12] = target: T12, WNK1 (Homo sapiens, UniProt Q9H4A3)
T12 construct: purchased Reaction Biology Corp
Method in brief: as §1

[13] = target: T13, SIK3 (Homo sapiens, UniProt Q9Y2K2)
T13 construct: purchased Reaction Biology Corp
Method in brief: as §1

[14] = read-out: % Enzyme Activity (relative to DMSO controls) Run 1
[15] = read-out: % Enzyme Activity (relative to DMSO controls) Run 2

T1 sequence (P04626 23-1255): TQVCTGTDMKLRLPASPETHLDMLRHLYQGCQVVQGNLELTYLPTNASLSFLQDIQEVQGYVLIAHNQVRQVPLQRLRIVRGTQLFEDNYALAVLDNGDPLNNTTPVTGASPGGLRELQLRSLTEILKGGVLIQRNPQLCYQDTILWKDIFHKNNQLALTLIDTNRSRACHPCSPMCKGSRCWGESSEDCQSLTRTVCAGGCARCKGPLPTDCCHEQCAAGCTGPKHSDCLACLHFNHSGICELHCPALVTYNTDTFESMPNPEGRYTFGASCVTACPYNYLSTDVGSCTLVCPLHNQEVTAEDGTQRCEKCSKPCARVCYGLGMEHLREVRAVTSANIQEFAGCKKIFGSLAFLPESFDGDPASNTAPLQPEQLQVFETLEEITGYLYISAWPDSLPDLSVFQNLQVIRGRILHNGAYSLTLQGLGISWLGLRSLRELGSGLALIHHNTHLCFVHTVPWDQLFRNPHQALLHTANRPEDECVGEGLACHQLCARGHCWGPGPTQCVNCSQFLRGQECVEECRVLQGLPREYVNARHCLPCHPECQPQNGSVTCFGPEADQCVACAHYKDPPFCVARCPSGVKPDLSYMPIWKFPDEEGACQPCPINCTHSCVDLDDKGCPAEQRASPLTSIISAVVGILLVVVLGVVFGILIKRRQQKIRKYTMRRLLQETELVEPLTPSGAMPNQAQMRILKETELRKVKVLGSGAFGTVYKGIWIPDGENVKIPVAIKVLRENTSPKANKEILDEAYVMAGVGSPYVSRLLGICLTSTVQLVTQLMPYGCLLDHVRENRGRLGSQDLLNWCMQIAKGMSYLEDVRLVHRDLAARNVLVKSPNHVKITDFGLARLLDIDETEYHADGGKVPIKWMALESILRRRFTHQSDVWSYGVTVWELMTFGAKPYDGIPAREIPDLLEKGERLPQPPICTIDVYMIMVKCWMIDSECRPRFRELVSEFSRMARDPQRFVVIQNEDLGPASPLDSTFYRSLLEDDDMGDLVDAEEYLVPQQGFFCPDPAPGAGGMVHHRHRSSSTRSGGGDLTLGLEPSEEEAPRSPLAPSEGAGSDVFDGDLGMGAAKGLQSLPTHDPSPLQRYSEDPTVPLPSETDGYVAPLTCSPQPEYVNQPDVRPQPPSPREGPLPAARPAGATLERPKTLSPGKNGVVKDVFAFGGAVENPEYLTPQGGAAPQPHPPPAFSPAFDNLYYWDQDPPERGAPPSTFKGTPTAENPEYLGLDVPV

C=CC(=O)Nc1cccc(Nc2nc(Nc3ccc(OCCOC)c(F)c3)ncc2F)c1 [Compound 2]
inhibition at 3 µM [1]: 61.3% | remaining activity at 3 µM [1, 14]: 39.8% | remaining activity at 3 µM [1, 15]: 37.5% | inhibition at 3 µM [2]: 86.6% | remaining activity at 3 µM [2, 14]: 13.2% | remaining activity at 3 µM [2, 15]: 13.6% | inhibition at 3 µM [3]: -4.25% | remaining activity at 3 µM [3, 14]: 106% | remaining activity at 3 µM [3, 15]: 103% | inhibition at 3 µM [4]: 78% | remaining activity at 3 µM [4, 14]: 22.9% | remaining activity at 3 µM [4, 15]: 21% | inhibition at 3 µM [5]: 36% | remaining activity at 3 µM [5, 14]: 64.7% | remaining activity at 3 µM [5, 15]: 63.4% | inhibition at 3 µM [6]: 86.9% | remaining activity at 3 µM [6, 14]: 13.2% | remaining activity at 3 µM [6, 15]: 12.9% | inhibition at 3 µM [7]: -5.96% | remaining activity at 3 µM [7, 14]: 107% | remaining activity at 3 µM [7, 15]: 105% | inhibition at 3 µM [8]: -6.85% | remaining activity at 3 µM [8, 14]: 111% | remaining activity at 3 µM [8, 15]: 103% | inhibition at 3 µM [9]: -6.68% | remaining activity at 3 µM [9, 14]: 106% | remaining activity at 3 µM [9, 15]: 108% | inhibition at 3 µM [10]: 12% | remaining activity at 3 µM [10, 14]: 87.7% | remaining activity at 3 µM [10, 15]: 88.4% | inhibition at 3 µM [11]: 3.75% | remaining activity at 3 µM [11, 14]: 95.4% | remaining activity at 3 µM [11, 15]: 97.1% | inhibition at 3 µM [12]: -12.1% | remaining activity at 3 µM [12, 14]: 112% | remaining activity at 3 µM [12, 15]: 112% | inhibition at 3 µM [13]: 7.93% | remaining activity at 3 µM [13, 14]: 91.3% | remaining activity at 3 µM [13, 15]: 92.8%
